Measured values as given in PMC11571207, “Stereorandomized Oncocins with Preserved Ribosome Binding and Antibacterial Activity” (Journal of Medicinal Chemistry, 2024).
≈ marks a conversion by molar mass, not a printed value. Read-outs that look alike come from different tables or passages of the source. Non-standard residues stand in square brackets, D forms with d. Residues, ends and D or L forms follow the SMILES beside them.

What was measured:
human red blood cells = experiment: Hemolysis assay, minimum hemolytic concentration
[1] = tested on: P. aeruginosa PA14 4.18 (pmrB); conditions: for MIC P. aeruginosa PA14 4.18: supplement CSV
P. aeruginosa PA14 = experiment: microbe, parasite or virus in culture; conditions: for MIC P. aeruginosa PA14: supplement CSV
Procedure, shortened: (§1)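 Minimal inhibitory concentrations come from broth microdilution in MH medium, with a top peptide concentration of 64 μg/mL halved serially.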

P. aeruginosa ZEM-1A = experiment: microbe, parasite or virus in culture; conditions: for MIC P. aeruginosa ZEM-1A: supplement CSV
Procedure, shortened: as §1

K. pneumoniae OXA-48 = experiment: microbe, parasite or virus in culture; conditions: for MIC K. pneumoniae OXA-48: supplement CSV
Procedure, shortened: as §1

[2] = tested on: P. aeruginosa PA14 2P4 (pmrB); experiment: microbe, parasite or virus in culture; conditions: for MIC P. aeruginosa PA14 2P4: supplement CSV
Procedure, shortened: as §1

P. aeruginosa ZEM9A = experiment: microbe, parasite or virus in culture; conditions: for MIC P. aeruginosa ZEM9A: supplement CSV
Procedure, shortened: as §1

E. cloacae = experiment: microbe, parasite or virus in culture; conditions: for MIC E. cloacae: supplement CSV
Procedure, shortened: as §1

P. aeruginosa PAO1 = experiment: microbe, parasite or virus in culture; conditions: for MIC P. aeruginosa PAO1: supplement CSV
Procedure, shortened: (§2)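 Read-out was visible growth after MTT addition, the MIC being the lowest inhibitory peptide concentration. Bacteria grown to log phase in LB were exposed in MH medium to peptide from 64 μg/mL in twofold dilutions for 15-18h at 37°C.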

S. aureus COL (MRSA) = experiment: microbe, parasite or virus in culture; conditions: for MIC S. aureus COL (MRSA): supplement CSV
Procedure, shortened: as §2

E. coli W3110 = experiment: microbe, parasite or virus in culture; conditions: for MIC E. coli W3110: supplement CSV
Procedure, shortened: as §2

K. pneumoniae NCTC 418 = experiment: microbe, parasite or virus in culture; conditions: for MIC K. pneumoniae NCTC418: supplement CSV
Procedure, shortened: as §2

A. baumannii ATCC19606 = experiment: microbe, parasite or virus in culture; conditions: for MIC A. baumannii ATCC19606: supplement CSV
Procedure, shortened: as §2

[3] = polymyxin B resistant strain, 12.5% MHB pH 7.4, 16–20 h at 37 °C
[4] = polymyxin B resistant strain, full MHB pH 7.4, 16–20 h at 37 °C

CC[C@H](C)[C@H](NC(=O)[C@H](CCCNC(=N)N)NC(=O)[C@H](CCCNC(=N)N)NC(=O)[C@@H]1CCCN1C(=O)[C@@H]1CCCN1C(=O)[C@H](CCCNC(=N)N)NC(=O)[C@@H]1CCCN1C(=O)[C@H](CCCNC(=N)N)NC(=O)[C@@H]1CCCN1C(=O)[C@@H](CC(C)C)NC(=O)[C@H](Cc1ccc(O)cc1)NC(=O)[C@@H]1CCCN1C(=O)[C@@H]1CCCN1C(=O)[C@H](CCCCN)NC(=O)[C@H](CC(=O)O)NC(=O)[C@@H](N)C(C)C)C(=O)N[C@@H](Cc1ccc(O)cc1)C(=O)N[C@@H](CC(N)=O)C(=O)N[C@@H](CCCNC(=N)N)C(N)=O [DL7-Onc] (H-VDKPPY[dL]PRPRPPRRIYNR-NH2)
Haemolysis on hRBC, MHC (human red blood cells; 2.5% human red blood cells (final) in 10 mM phosphate, 150 mM NaCl, pH 7.4, 25 °C, 4 h, visual inspection): >1000 µg/mL | MHC human red blood cells (human red blood cells; supplement CSV): >1000 µg/mL | MIC P. aeruginosa PA14 4.18 (pmrB), 12.5% MHB [1, 3]: >32/>32 μg/mL | MIC P. aeruginosa PA14 4.18 (pmrB), full MHB [1, 4]: >32/>32 μg/mL | MIC P. aeruginosa PA14 4.18 ([1]; 12.5% MH pH 7.4): >32 µg/mL | MIC P. aeruginosa PA14 4.18 ([1]; full MH pH 7.4): >32 µg/mL | MIC P. aeruginosa PA14, 12.5% MHB (P. aeruginosa PA14; 12.5% MHB pH 7.4, 16–20 h at 37 °C, two different duplicate MIC determinations): >32/>32 μg/mL | MIC P. aeruginosa PA14, full MHB (P. aeruginosa PA14; full MHB pH 7.4, 16–20 h at 37 °C, two different duplicate MIC determinations): >32/>32 μg/mL | MIC P. aeruginosa PA14 (P. aeruginosa PA14; 12.5% MH pH 7.4): >32 µg/mL | MIC P. aeruginosa PA14 (P. aeruginosa PA14; full MH pH 7.4): >32 µg/mL | MIC P. aeruginosa ZEM-1A, 12.5% MHB (P. aeruginosa ZEM-1A; clinical isolate, 12.5% MHB pH 7.4, 16–20 h at 37 °C, cells marked c: single measurement (in duplicates)): >64/>64 ^c μg/mL | MIC P. aeruginosa ZEM-1A, full MHB (P. aeruginosa ZEM-1A; clinical isolate, full MHB pH 7.4, 16–20 h at 37 °C, cells marked c: single measurement (in duplicates)): >64/>64 ^c μg/mL | MIC P. aeruginosa ZEM-1A (P. aeruginosa ZEM-1A; 12.5% MH pH 7.4): >64 µg/mL | MIC P. aeruginosa ZEM-1A (P. aeruginosa ZEM-1A; full MH pH 7.4): >64 µg/mL | MIC K. pneumoniae OXA-48, 12.5% MHB (K. pneumoniae OXA-48; carbapenem-resistant, 12.5% MHB pH 7.4, 16–20 h at 37 °C): >64/>64 μg/mL | MIC K. pneumoniae OXA-48, full MHB (K. pneumoniae OXA-48; carbapenem-resistant, full MHB pH 7.4, 16–20 h at 37 °C): >64/>64 μg/mL | MIC K. pneumoniae OXA-48 (K. pneumoniae OXA-48; 12.5% MH pH 7.4): >64 µg/mL | MIC K. pneumoniae OXA-48 (K. pneumoniae OXA-48; full MH pH 7.4): >64 µg/mL | MIC P. aeruginosa PA14 2P4 (pmrB), 12.5% MHB [2, 3]: 32 µg/mL (≈ 13.4 µM) | MIC P. aeruginosa PA14 2P4 (pmrB), full MHB [2, 4]: > 64 µg/mL | MIC P. aeruginosa PA14 2P4 ([2]; 12.5% MH pH 7.4): 32 µg/mL (≈ 13.4 µM) | MIC P. aeruginosa PA14 2P4 ([2]; full MH pH 7.4): >64 µg/mL | MIC P. aeruginosa ZEM9A, 12.5% MHB (P. aeruginosa ZEM9A; clinical isolate, 12.5% MHB pH 7.4, 16–20 h at 37 °C): >64/>64 μg/mL | MIC P. aeruginosa ZEM9A, full MHB (P. aeruginosa ZEM9A; clinical isolate, full MHB pH 7.4, 16–20 h at 37 °C): >64/>64 μg/mL | MIC P. aeruginosa ZEM9A (P. aeruginosa ZEM9A; 12.5% MH pH 7.4): >64 µg/mL | MIC P. aeruginosa ZEM9A (P. aeruginosa ZEM9A; full MH pH 7.4): >64 µg/mL | MIC E. cloacae, 12.5% MHB (E. cloacae; 12.5% MHB pH 7.4, 16–20 h at 37 °C): 32 µg/mL (≈ 13.4 µM) | MIC E. cloacae, full MHB (E. cloacae; full MHB pH 7.4, 16–20 h at 37 °C): > 64 µg/mL | MIC E. cloacae (E. cloacae; 12.5% MH pH 7.4): 32 µg/mL (≈ 13.4 µM) | MIC E. cloacae (E. cloacae; full MH pH 7.4): >64 µg/mL | MIC P. aeruginosa, 12.5% MHB (P. aeruginosa PAO1; P. aeruginosa PAO1, 12.5% Müller–Hinton medium, 16–20 h at 37 °C): > 16 µg/mL | MIC P. aeruginosa, Full MHB (P. aeruginosa PAO1; P. aeruginosa PAO1, full Müller–Hinton medium, 16–20 h at 37 °C): > 64 µg/mL | MIC P. aeruginosa PAO1 (P. aeruginosa PAO1; 12.5% MH pH 7.4): >16 µg/mL | MIC P. aeruginosa PAO1 (P. aeruginosa PAO1; full MH pH 7.4): >64 µg/mL | MIC S. aureus, 12.5% MHB (S. aureus COL (MRSA); S. aureus COL (MRSA), 12.5% Müller–Hinton medium, 16–20 h at 37 °C): >64 / >64 μg/mL | MIC S. aureus, Full MHB (S. aureus COL (MRSA); S. aureus COL (MRSA), full Müller–Hinton medium, 16–20 h at 37 °C): >64 / >64 μg/mL | MIC S. aureus COL (MRSA) (S. aureus COL (MRSA); 12.5% MH pH 7.4): >64 µg/mL | MIC S. aureus COL (MRSA) (S. aureus COL (MRSA); full MH pH 7.4): >64 µg/mL | MIC E. coli, 12.5% MHB (E. coli W3110; E. coli W3110, 12.5% Müller–Hinton medium, 16–20 h at 37 °C, broth microdilution): 8 µg/mL (≈ 3.35 µM) | MIC E. coli, Full MHB (E. coli W3110; E. coli W3110, full Müller–Hinton medium, 16–20 h at 37 °C, broth microdilution): > 64 µg/mL | MIC E. coli W3110 (E. coli W3110; 12.5% MH pH 7.4): 8 µg/mL (≈ 3.35 µM) | MIC E. coli W3110 (E. coli W3110; full MH pH 7.4): >64 µg/mL | MIC K. pneumoniae, 12.5% MHB (K. pneumoniae NCTC 418; K. pneumoniae NCTC 418, 12.5% Müller–Hinton medium, 16–20 h at 37 °C): > 16 µg/mL | MIC K. pneumoniae, Full MHB (K. pneumoniae NCTC 418; K. pneumoniae NCTC 418, full Müller–Hinton medium, 16–20 h at 37 °C): > 64 µg/mL | MIC K. pneumoniae NCTC418 (K. pneumoniae NCTC 418; 12.5% MH pH 7.4): >16 µg/mL | MIC K. pneumoniae NCTC418 (K. pneumoniae NCTC 418; full MH pH 7.4): >64 µg/mL | MIC A. baumannii, 12.5% MHB (A. baumannii ATCC19606; A. baumannii ATCC19606, 12.5% Müller–Hinton medium, 16–20 h at 37 °C): > 16 µg/mL | MIC A. baumannii, Full MHB (A. baumannii ATCC19606; A. baumannii ATCC19606, full Müller–Hinton medium, 16–20 h at 37 °C): > 64 µg/mL | MIC A. baumannii ATCC19606 (A. baumannii ATCC19606; 12.5% MH pH 7.4): >16 µg/mL | MIC A. baumannii ATCC19606 (A. baumannii ATCC19606; full MH pH 7.4): >64 µg/mL
